For 21 compounds, MIC results are on record in US4005075A, “Penicillins and their preparation” (Sumitomo Chemical Company, Limited, priority 1973, dated 1977).

Assay in all cases: Antimicrobial activity, agar dilution method (minimal inhibitory concentration)
Common to all, as to assay type: cell-based
A general note: Agar dilution tests growth on a series of plates holding different concentrations.

In assay [1] the test system is Psudomonas aeruginosa 104. From the text:
(§1) The antimicrobial activities of the compounds obtained in the above Examples determined by the standard test method (i.e. agar dilution method) as well as those of the following penicillins as disclosed in U.S. Pat. No. 3,433,784 are shown in Table 2: [drawing 59]

Another assay deals with Proteus vulgaris HX19.
Source text: as §1

The test system of assay [2] is Klebsiella pneumoniae 602.
Source text: as §1

For another assay, the system named is Escherichia coli NIHJ.
Source text: as §1

Assay [3] relates to Staphylococcus aureus 209P.
Source text: as §1

The subject of a further assay is Proteus miravilis 2425.
Source text: as §1

In brackets after ≈: the same amount, converted by molar mass.

A word on the MIC: it is the least concentration at which growth counts as inhibited. Take `CC1(C)S[C@@H]2[C@H](NC(=O)[C@H](NC(=O)c3cnc4cccnc4c3O)c3ccc(O)cc3)C(=O)N2[C@H]1C(=O)O` (mixture of isomers) [Example 2, D-α-(4-hydroxy-1,5-naphthyridine-3-carbonamido)-p-hydroxyphenylacetamidopenicillanic acid]: the MIC in assay [1] was found to be 0.78 mg/L; in the assay with Proteus vulgaris HX19, 0.0125 mg/L; in assay [2], 6.25 mg/L; in the assay with Escherichia coli NIHJ, 0.78 mg/L; in assay [3], 1.56 mg/L.
As for `CCOc1cnc2ccccc2c1C(=O)NC(C(=O)N[C@@H]1C(=O)N2[C@@H]1SC(C)(C)[C@@H]2C(=O)O)c1ccccc1` (stereo partly drawn) [B, reference compound], the MIC in assay [1] stood at 100 mg/L (≈ 182 µM); in the assay with Proteus vulgaris HX19, 12.5 mg/L (≈ 22.8 µM); in assay [2] it was 25 mg/L (≈ 45.6 µM); against Escherichia coli NIHJ, 50 mg/L (≈ 91.1 µM); in assay [3], 0.39 mg/L (≈ 0.711 µM); in the assay on Proteus miravilis 2425 it was 100 mg/L (≈ 182 µM).
The compound `CC1(C)S[C@@H]2[C@H](NC(=O)C(NC(=O)c3ccccn3)c3ccccc3)C(=O)N2[C@H]1C(=O)O` (stereo partly drawn) [Compound, reference compound] registered an MIC against Proteus vulgaris HX19 of 0.39 mg/L (≈ 0.858 µM).
With `CC1(C)S[C@@H]2[C@H](NC(=O)[C@H](NC(=O)c3cnc4cccnc4c3O)c3ccccc3)C(=O)N2[C@H]1C(=O)O` [Example 1, D-α-(4-hydroxy-1,5-naphthyridine-3-carbonamido)benzylpenicillin], the MIC in assay [1] came to 1.56 mg/L (≈ 2.99 µM); with Proteus vulgaris HX19, 0.1 mg/L (≈ 0.192 µM); in assay [2], 6.25 mg/L (≈ 12 µM); against Escherichia coli NIHJ it was 1.56 mg/L (≈ 2.99 µM); in assay [3], 0.78 mg/L (≈ 1.5 µM); in the assay on Proteus miravilis 2425, 3.13 mg/L (≈ 6 µM).
For the compound `CC1(C)S[C@@H]2[C@H](NC(=O)[C@H](NC(=O)c3cnccc3O)c3ccccc3)C(=O)N2[C@H]1C(=O)O` [Example 3, D-α-(4-hydroxypyridine-3-carbonamido)benzylpenicillin], the MIC in assay [1] is 3.13 mg/L (≈ 6.65 µM); against Proteus vulgaris HX19, 0.1 mg/L (≈ 0.213 µM); in assay [2], 25 mg/L (≈ 53.1 µM); against Escherichia coli NIHJ it was 25 mg/L (≈ 53.1 µM); in assay [3] it was 0.39 mg/L (≈ 0.829 µM); against Proteus miravilis 2425, 6.25 mg/L (≈ 13.3 µM).
With `CC1(C)S[C@@H]2[C@H](NC(=O)[C@H](NC(=O)c3nnc4ccccc4c3O)c3ccccc3)C(=O)N2[C@H]1C(=O)O` [Example 4, D-α-(4-hydroxycinnoline-3-carbonamido)benzylpenicillin], the MIC in assay [1] was 12.5 mg/L (≈ 24 µM); against Proteus vulgaris HX19, 0.78 mg/L (≈ 1.5 µM); in assay [2], 12.5 mg/L (≈ 24 µM); with Escherichia coli NIHJ, 12.5 mg/L (≈ 24 µM); in assay [3] it was 0.78 mg/L (≈ 1.5 µM); against Proteus miravilis 2425 it was 12.5 mg/L (≈ 24 µM).
Take `CC1(C)S[C@@H]2[C@H](NC(=O)[C@H](NC(=O)c3ccnnc3O)c3ccccc3)C(=O)N2[C@H]1C(=O)O` [Example 5, D-α-(3hydroxypyridazine-4-carbonamido)benzylpenicillin]: the minimal inhibitory concentration (MIC) stood at 3.13 mg/L (≈ 6.64 µM) in assay [1]; 0.05 mg/L (≈ 0.106 µM) with Proteus vulgaris HX19; 6.25 mg/L (≈ 13.3 µM) in assay [2]; 12.5 mg/L (≈ 26.5 µM) in the assay on Escherichia coli NIHJ; 0.39 mg/L (≈ 0.827 µM) in assay [3]; 6.25 mg/L (≈ 13.3 µM) with Proteus miravilis 2425.
`CC1(C)S[C@@H]2[C@H](NC(=O)[C@H](NC(=O)c3cnc4cccnc4c3O)C3=CCC=CC3)C(=O)N2[C@H]1C(=O)O` [Example 6]: the MIC in assay [1] is 1.56 mg/L (≈ 2.98 µM); with Proteus vulgaris HX19, under 0.05 mg/L; in assay [2], 3.13 mg/L (≈ 5.98 µM); in the assay with Escherichia coli NIHJ, 1.56 mg/L (≈ 2.98 µM); in assay [3] it was 0.39 mg/L (≈ 0.745 µM); against Proteus miravilis 2425, 3.13 mg/L (≈ 5.98 µM).
Regarding `CC1(C)S[C@@H]2[C@H](NC(=O)[C@H](NC(=O)c3cnc(O)nc3O)c3ccccc3)C(=O)N2[C@H]1C(=O)O` [Example 7], the MIC in assay [1] is 3.13 mg/L (≈ 6.42 µM); against Proteus vulgaris HX19, 0.05 mg/L (≈ 0.103 µM); in assay [2], 25 mg/L (≈ 51.3 µM); in the assay on Escherichia coli NIHJ, 12.5 mg/L (≈ 25.6 µM); in assay [3] it was 0.39 mg/L (≈ 0.8 µM); with Proteus miravilis 2425, 6.25 mg/L (≈ 12.8 µM).
Take `CC1(C)S[C@@H]2[C@H](NC(=O)[C@H](NC(=O)c3cncnc3O)c3ccccc3)C(=O)N2[C@H]1C(=O)O` [Example 8]: the MIC was 3.13 mg/L (≈ 6.64 µM) in assay [1]; 0.05 mg/L (≈ 0.106 µM) in the assay on Proteus vulgaris HX19; 100 mg/L (≈ 212 µM) in assay [2]; 25 mg/L (≈ 53 µM) against Escherichia coli NIHJ; 0.39 mg/L (≈ 0.827 µM) in assay [3]; 12.5 mg/L (≈ 26.5 µM) with Proteus miravilis 2425.
`CC1(C)S[C@@H]2[C@H](NC(=O)[C@H](NC(=O)c3cnc4ccccc4c3O)c3ccccc3)C(=O)N2[C@H]1C(=O)O` [Example 9] had an MIC against Proteus vulgaris HX19 of 0.2 mg/L (≈ 0.384 µM).
In the case of `CC1(C)S[C@@H]2[C@H](NC(=O)[C@H](NC(=O)c3ncccc3O)c3ccccc3)C(=O)N2[C@H]1C(=O)O` [Example 10], the MIC in assay [1] came to 6.25 mg/L (≈ 13.3 µM); against Proteus vulgaris HX19, 0.2 mg/L (≈ 0.425 µM); in assay [2], 25 mg/L (≈ 53.1 µM); in the assay with Escherichia coli NIHJ, 6.25 mg/L (≈ 13.3 µM); in assay [3] it was 0.2 mg/L (≈ 0.425 µM); in the assay on Proteus miravilis 2425, 25 mg/L (≈ 53.1 µM).
Consider `CC1(C)S[C@@H]2[C@H](NC(=O)[C@H](NC(=O)c3cccnc3O)c3ccccc3)C(=O)N2[C@H]1C(=O)O` [Example 11], for which the MIC in assay [1] is 6.25 mg/L (≈ 13.3 µM); with Proteus vulgaris HX19, 0.2 mg/L (≈ 0.425 µM); in assay [2], 25 mg/L (≈ 53.1 µM); against Escherichia coli NIHJ, 12.5 mg/L (≈ 26.6 µM); in assay [3], 0.39 mg/L (≈ 0.829 µM); against Proteus miravilis 2425 it was 25 mg/L (≈ 53.1 µM).
Take `CC1(C)S[C@@H]2[C@H](NC(=O)[C@H](NC(=O)c3cnc4c(c3O)CCCC4)c3ccccc3)C(=O)N2[C@H]1C(=O)O` [Example 12]: the MIC in assay [1] amounted to 12.5 mg/L (≈ 23.8 µM); against Proteus vulgaris HX19 it was 0.05 mg/L (≈ 0.0953 µM); in assay [2], 6.25 mg/L (≈ 11.9 µM); with Escherichia coli NIHJ, 12.5 mg/L (≈ 23.8 µM); in assay [3] it was 0.78 mg/L (≈ 1.49 µM); with Proteus miravilis 2425, 6.25 mg/L (≈ 11.9 µM).
Take `Cc1ccc(C(=O)N[C@@H](C(=O)N[C@@H]2C(=O)N3[C@@H]2SC(C)(C)[C@@H]3C(=O)O)c2ccccc2)c(O)n1` [Example 13]: the MIC in assay [1] stood at 12.5 mg/L (≈ 25.8 µM); against Proteus vulgaris HX19, 0.2 mg/L (≈ 0.413 µM); in assay [2] it was 25 mg/L (≈ 51.6 µM); in the assay on Escherichia coli NIHJ, 12.5 mg/L (≈ 25.8 µM); in assay [3], 0.39 mg/L (≈ 0.805 µM); in the assay with Proteus miravilis 2425 it was 12.5 mg/L (≈ 25.8 µM).
For the compound `COc1cc2ncc(C(=O)N[C@@H](C(=O)N[C@@H]3C(=O)N4[C@@H]3SC(C)(C)[C@@H]4C(=O)O)c3ccccc3)c(O)c2cn1` [Example 16], the values for the MIC (in assay [1]; against Proteus vulgaris HX19; in assay [2]) were 6.25 mg/L (≈ 11.3 µM), 0.2 mg/L (≈ 0.363 µM) and 6.25 mg/L (≈ 11.3 µM), respectively.
For the compound `Cc1ccc2c(O)c(C(=O)N[C@@H](C(=O)N[C@@H]3C(=O)N4[C@@H]3SC(C)(C)[C@@H]4C(=O)O)c3ccc(O)cc3)cnc2n1` [Example 19], the minimal inhibitory concentration (MIC) came out at 0.39 mg/L (≈ 0.707 µM) with Proteus vulgaris HX19, 6.25 mg/L (≈ 11.3 µM) in the assay with Escherichia coli NIHJ, 1.56 mg/L (≈ 2.83 µM) in assay [3] and 25 mg/L (≈ 45.3 µM) against Proteus miravilis 2425.
Consider `CC1(C)S[C@@H]2[C@H](NC(=O)[C@H](NC(=O)c3cnc4ccccc4c3O)c3ccc(O)cc3)C(=O)N2[C@H]1C(=O)O` [Example 22], for which the minimum inhibitory concentration (MIC) against Proteus vulgaris HX19 came to 0.2 mg/L (≈ 0.373 µM); against Escherichia coli NIHJ it was 6.25 mg/L (≈ 11.6 µM).
Regarding `CC1(C)S[C@@H]2[C@H](NC(=O)[C@H](NC(=O)c3nnc4ccccc4c3O)c3ccc(O)cc3)C(=O)N2[C@H]1C(=O)O` [Example 23], the MIC in the assay with Proteus vulgaris HX19 was determined as 0.78 mg/L (≈ 1.45 µM).
Consider `Cc1ccc2ncc(C(=O)N[C@@H](C(=O)N[C@@H]3C(=O)N4[C@@H]3SC(C)(C)[C@@H]4C(=O)O)c3ccc(O)cc3)c(O)c2n1` [Example 26], for which the MIC against Proteus vulgaris HX19 worked out at 0.05 mg/L (≈ 0.0906 µM); against Escherichia coli NIHJ it was 1.56 mg/L (≈ 2.83 µM).
Consider `COc1ccc2ncc(C(=O)N[C@@H](C(=O)N[C@@H]3C(=O)N4[C@@H]3SC(C)(C)[C@@H]4C(=O)O)c3ccc(O)cc3)c(O)c2n1` [Example 27], for which the values for the MIC against Proteus vulgaris HX19 and with Escherichia coli NIHJ were 0.05 mg/L (≈ 0.0881 µM) and 3.13 mg/L (≈ 5.51 µM), respectively.
